In patent publication US20250270170A1, “2,3-DIMETHOXY-5-METHYL-1,4-BENZOQUINONE ALKYL ALCOHOL DERIVATIVE AND USE THEREOF” (BEIJING ANJIANXI BIO-MEDICAL TECHNOLOGY CO., LTD., priority 2021, published 2025):

What was measured:
[1] = Example 9: body weight of A549 tumor-bearing nude mice; type: in vivo
Protocol: On D1 of the assay, the A549 cells in the logarithmic growth phase were collected, counted and resuspended in PBS, and the cell concentration was adjusted to 8×10^7 cells/mL. The cells were pipetted with a pipette to disperse them evenly, and the cells were put into a 50-mL centrifuge tube, which was placed in an ice box. A 1-mL syringe was used to draw the cell suspension, which was injected subcutaneously into the axilla of the front right limb of a nude mouse. Each animal was inoculated with 100 μL (8×10^6 cells/mouse) to establish an A549 transplanted tumor model in nude mice. After the inoculation, the animal status and tumor growth were regularly observed. On D18, the tumor diameter was measured using an electronic vernier caliper. The data were input into an Excel spreadsheet to calculate the tumor volume. Tumor-bearing mice in good health and with similar tumor volumes (101 to 156 mm^3) were selected and divided into groups using randomized block method. After the start of the assay, the tumor diameter was measured regularly, the tumor volume was calculated, and the animal body weight was also weighed and recorded. [table]

NCI-H460 cells = test: Flow cytometry for cell cycle detection, NCI-H460; type: cell-based, human
Protocol: (§1) (1) Cells were inoculated in a 6-well plate. When about 50% of the cells were adherent and fused, the compound of formula (I) at a concentration of 0 μM, 10 μM, 30 μM, and 90 μM were added, respectively. The plate was placed in an incubator at 37° C. with 5% CO2 to continue culturing, and three time points were set, which were 24 h, 48 h and 72 h, respectively.
(§2) (2) After reaching the designated time point, the cell culture plate was taken out from the incubator, and placed in a biological safety cabinet. A 4 ml centrifuge tube was taken and marked. The supernatant in each well was pipetted out and added to the corresponding 4 ml centrifuge tube. The cells were gently washed with PBS, and the PBS was added to the corresponding centrifuge tube. An appropriate amount of trypsin was added to each well to digest the cells. When the cells were digested to a moderate degree, the old culture medium from the centrifuge tube was added to the corresponding well. The cells were gently pipetted with apipette to form a single-cell suspension, which was pipetted back into the original centrifuge tube. The tube was immediately centrifuged at 1500 rpm for 5 minutes. Then, the supernatant was discarded and the precipitate was retained.
(§3) (3) 2 ml of pre-chilled PBS was added to the centrifuge tube, and centrifuged again at 1500 rpm for 5 minutes. The supernatant was discarded, and the cell debris was removed.
(§4) (4) 1 ml of 75% ethanol was added while pipetting the cells, to make the cells appear as single as possible. Then, the cells were fixed at 4° C. overnight or stored at −20° C. for long-term storage (can be stored for 1 week).
(§5) (5) The fixed cells were taken out, and centrifuged at 1000 rpm for 5 minutes. The ethanol was discarded, and pre-chilled PBS was added to wash the cells. Then, the cells were centrifuged at 1000 rpm for 5 min to remove the residual ethanol on the cells.
(§6) (6) A cell cycle detection kit from Wuhan Promoter Biology Co., Ltd. was used. 100 μl of RNaseA was added, and incubated in a 37° C. water bath for 30 minutes.
(§7) (7) 400 μl of PI was added and mixed well, and incubated at 4° C. in dark for 30 minutes.
(§8) (8) The cell cycle was detected by upflow cytometry.

A549 cells [2] = test: CCK-8 cell proliferation assay, A549; type: cell-based; conditions: Homo sapiens
Protocol: (1) Cells in the logarithmic growth phase were taken and digested to make a cell suspension. 20 μl of the cell suspension was taken with a pipette, and added to a CountStar disposable cell counting plate for cell counting, and the counting results were recorded. The cell concentration was adjusted to 30,000 to 40,000 cells/ml (note: different cells have different growth rates, so the number of cells in each well was slightly different).
(2) A 96-well plate was taken. Since the wells in the outermost circle of the culture plate were easy to evaporate and dry, causing inaccurate volumes, and increasing errors, 100 μl of PBS was added to the wells in the outermost circle, which were not used as assay wells.
(3) The adjusted cell suspension was added to the 96-well plate, with 100 μl in each well, resulting approximately 3000 to 4000 cells in each well. The plate was placed in a 37° C. incubator under the condition of 5% CO2 for cell culture, and the drug was added when the cells adhered to the wall.
(4) Drug dilution. The concentration gradient was set as: 0 μM, 10 μM, 50 μM, 100 μM, and 200 μM, with 3 duplicates for each concentration. In addition, blank control wells containing only culture medium and drug without cells were also set.
(5) The plate was incubated in the incubator for 24 h, 48 h and 72 h, respectively. After reaching the set time point, the 96-well plate was taken out from the incubator, and 10 μl of CCK-8 reagent was added to each well, taking care to avoid bubbles. The plate was shaked to mix evenly, and put back into the incubator to culture for another 2 hours.
(6) To detect the absorbance, the 96-well plate was placed in a […], and the absorbance value (OD value) at 450 nm was detected. The data was recorded. Cell viability=(OD value of the assay well−OD value of the blank control well)/(OD value of the solvent control well−OD value of the blank control well)×100%.
(7) The data was imported into GraphPad Prism5 for plotting. The IC50 values were calculated, and the curves were drawn.

A549 cells [3] = test: Flow cytometry for cell cycle detection, A549; type: cell-based, human
Protocol: as §1, §2, §3, §4, §5, §6, §7, §8

[4] = D21, DDP 5/7/7/7 mg/kg i.p. QW×4
[5] = D25, DDP 5/7/7/7 mg/kg i.p. QW×4
[6] = D28, DDP 5/7/7/7 mg/kg i.p. QW×4
[7] = D32, DDP 5/7/7/7 mg/kg i.p. QW×4
[8] = D35, DDP 5/7/7/7 mg/kg i.p. QW×4
[9] = D39, DDP 5/7/7/7 mg/kg i.p. QW×4
[10] = D42, DDP 5/7/7/7 mg/kg i.p. QW×4
[11] = D46, DDP 5/7/7/7 mg/kg i.p. QW×4

N.N.[Cl][Pt][Cl] [DDP, cisplatin]
Mean animal body weight ([1]; D18, DDP 4 mg/kg i.p. QW×4): 18.4 ± 0.4 g | Mean animal body weight ([1]; D18, DDP 5/7/7/7 mg/kg i.p. QW×4): 18.5 ± 0.3 g | Mean animal body weight ([1]; D21, DDP 4 mg/kg i.p. QW×4): 18.3 ± 0.5 g | body weight loss rate ([1]; D21, DDP 4 mg/kg i.p. QW×4): (0.81%) | Mean animal body weight [1, 4]: 18.4 ± 0.3 g | body weight loss rate [1, 4]: (0.61%) | Mean animal body weight ([1]; D25, DDP 4 mg/kg i.p. QW×4): 18.1 ± 0.3 g | body weight loss rate ([1]; D25, DDP 4 mg/kg i.p. QW×4): (1.7%) | Mean animal body weight [1, 5]: 18.5 ± 0.3 g | body weight loss rate [1, 5]: (0.00%) | Mean animal body weight ([1]; D28, DDP 4 mg/kg i.p. QW×4): 18.5 ± 0.3 g | body weight loss rate ([1]; D28, DDP 4 mg/kg i.p. QW×4): (−0.14%) | Mean animal body weight [1, 6]: 18.9 ± 0.3 g | body weight loss rate [1, 6]: (−2.4%) | Mean animal body weight ([1]; D32, DDP 4 mg/kg i.p. QW×4): 18.7 ± 0.3 g | body weight loss rate ([1]; D32, DDP 4 mg/kg i.p. QW×4): (−1.4%) | Mean animal body weight [1, 7]: 18.3 ± 0.4 g | body weight loss rate [1, 7]: (1.3%) | Mean animal body weight ([1]; D35, DDP 4 mg/kg i.p. QW×4): 19.3 ± 0.3 g | body weight loss rate ([1]; D35, DDP 4 mg/kg i.p. QW×4): (−4.9%) | Mean animal body weight [1, 8]: 19.2 ± 0.4 g | body weight loss rate [1, 8]: (−4.0%) | Mean animal body weight ([1]; D39, DDP 4 mg/kg i.p. QW×4): 19.3 ± 0.3 g | body weight loss rate ([1]; D39, DDP 4 mg/kg i.p. QW×4): (−4.6%) | Mean animal body weight [1, 9]: 18.0 ± 0.3 g | body weight loss rate [1, 9]: (2.5%) | Mean animal body weight ([1]; D42, DDP 4 mg/kg i.p. QW×4): 19.8 ± 0.5 g | body weight loss rate ([1]; D42, DDP 4 mg/kg i.p. QW×4): (−7.7%) | Mean animal body weight [1, 10]: 18.8 ± 0.4 g | body weight loss rate [1, 10]: (−1.5%) | Mean animal body weight ([1]; D46, DDP 4 mg/kg i.p. QW×4): 19.5 ± 0.5 g | body weight loss rate ([1]; D46, DDP 4 mg/kg i.p. QW×4): (−5.6%) | Mean animal body weight [1, 11]: 17.1 ± 0.5 g | body weight loss rate [1, 11]: (7.4%)

COC1=C(OC)C(=O)C(CCCCCCCCCCOC(=O)Cc2c(C)n(C(=O)c3ccc(Cl)cc3)c3ccc(OC)cc23)=C(C)C1=O [compound of formula (I)]
proportion of S phase cells (NCI-H460 cells; 10 μM, 24 h): 26.03% | proportion of S phase cells (NCI-H460 cells; 10 μM, 48 h): 29.62% | proportion of S phase cells (NCI-H460 cells; 10 μM, 72 h): 21.61% | proportion of S phase cells (NCI-H460 cells; 30 μM, 24 h): 13.15% | proportion of S phase cells (NCI-H460 cells; 30 μM, 48 h): 16.02% | proportion of S phase cells (NCI-H460 cells; 30 μM, 72 h): 20.98% | proportion of S phase cells (NCI-H460 cells; 90 μM, 24 h): 9.76% | proportion of S phase cells (NCI-H460 cells; 90 μM, 48 h): 0.97% | proportion of S phase cells (NCI-H460 cells; 90 μM, 72 h): 3.36% | IC50 (A549 cells [2]; 24 h): 213.2 ± 1.22 µM | IC50 (A549 cells [2]; 48 h): 55.5 ± 1.84 µM | IC50 (A549 cells [2]; 72 h): 39.7 ± 0.98 µM | proportion of S phase of cells (A549 cells [3]; 10 μM, 24 h): 22.94% | proportion of S phase of cells (A549 cells [3]; 10 μM, 48 h): 24.73% | proportion of S phase of cells (A549 cells [3]; 10 μM, 72 h): 19.77% | proportion of S phase of cells (A549 cells [3]; 30 μM, 24 h): 12.52% | proportion of S phase of cells (A549 cells [3]; 30 μM, 48 h): 15.96% | proportion of S phase of cells (A549 cells [3]; 30 μM, 72 h): 10.63% | proportion of S phase of cells (A549 cells [3]; 90 μM, 24 h): 3.92% | proportion of S phase of cells (A549 cells [3]; 90 μM, 48 h): 4.37% | proportion of S phase of cells (A549 cells [3]; 90 μM, 72 h): 5.42%
